Results on 13 compounds are retold here after paper PMC11767801, “Purine but Not Pyrimidine De Novo Nucleotide Biosynthesis Inhibitors Strongly Enhance the Antiviral Effect of Corresponding Nucleobases Against Dengue Virus” (Molecules, 2025).

The subject of one data set is DENV replicon. In words: DENV replicon cell assay (Renilla luciferase). The following applies: for EC50: Dengue virus; for potentiation of anti-replicon activity (in words): purine nucleobase combined with 6MMPR and/or 6MMPR prodrugs. The format is cell-based, Dengue virus (DENV). Here is the method:
(§1) The following cell lines were used in this study: (i) Huh7 was purchased from JCRB Cell Bank (Seikisui XenoTech, Kansas City, MO, USA) and cultured in Minimum Essential Medium (MEM) supplemented with 10% fetal bovine serum (FBS), and 1× non-essential amino acids (NEAA), 1 mM sodium pyruvate, 100 IU penicillin/streptomycin per mL, 5 µg/mL plasmocin (InvivoGen, San Diego, CA, USA), 1× GlutaMAX, and (ii) BHK pD2-hRucPac-2ATG30 DENV replicon cells were a gift from M. Diamond (Washington University School of Medicine) and cultured in Dulbecco’s modified Eagle’s medium (DMEM) supplemented with 10% FBS, 100 IU penicillin/streptomycin per mL, 5 µg/mL plasmocin, 1× GlutaMAX, and 3 µg/mL puromycin (InvivoGen). (iii) A549 Ace2 TMPRSS2 cells were provided by M. Saeed (Boston University) and grown in DMEM supplemented with 10% FBS, 100 IU penicillin/streptomycin per mL, 10 mM HEPES, 1× NEAA, 1× GlutaMAX, 1 mM sodium pyruvate, 5 µg/mL plasmocin, 0.5 µg/mL puromycin, and 0.5 µg/mL blasticidin (InvivoGen).
The DENV replicon assay was performed as described. Briefly, DENV replicon cells were plated at 1500–2000 cells per well […] of a 96-well dish (Corning, USA) plate the day before use. The next day, compounds were added and cells incubated at 37 °C, 5% CO2, in a humidified incubator for three days. The cells were the washed with PBS and Complete Promega Renilla reagent was added (Promega E2720, Madison, USA, 1 µL Renilla-Glo Substrate + 99 µL Renilla-Glo Buffer + 100 µL phenol-red-free DMEM supplemented with 10% FBS per well). Cells were lysed for 10 min at room temp and 160 µL of lysate per well was transferred to wells of a 96-well opaque white plate (Falcon 353296, Corning, USA), and luminescence was measured using a BioTek (Winooski, USA) Neo2 plate reader.
Background: Replicon systems follow genome replication, usually without infectious particles.

Data set [1] is described as follows: Cell viability assay (MTS). In kind it is cell-based. The settings on record: hamster. On the procedure:
as §1
(§2) Cell viability assays were performed as described in [9, 10, 23]. Briefly, DENV replicon cells were plated at 1500–2000 cells per well of a 96-well dish plate (Corning, NY, USA) the day before use. The next day, compounds were added and cells incubated at 37 °C, 5% CO2, in a humidified incubator for three days. The cells were washed with phosphate-buffered saline (PBS) and incubated with the MTS reagent (Promega G5430, Madison, WI, USA) as per the manufacturer’s instructions. The plates were read at a 490 nm wavelength at 30 min intervals in a BioTek (Winooski, VT, USA) Neo2 plate reader.

Data set [2] has as its system DENV replicon cells (BHK pD2-hRucPac-2ATG30). In words: Cell viability assay (MTS). The settings on record: nucleobase combined with potentiators (6MMPR and prodrugs). In kind it is cell-based. On the procedure:
as §1, §2

A further data set concerns DENV. Also on record: method as in PMID 29672522. The following applies: cited from earlier work.
The subject of data set [3] is ZIKV PAN1 Nluc reporter virus. In words: ZIKV nanoluc reporter virus assay in A549 Ace2 TMPRSS2 cells. The format is cell-based, Zika virus (ZIKV). The following applies: three days. On the procedure:
(§3) Figure 5 Flavivirus inhibition by the nucleobase 2-thiouracil (2SU) and the corresponding nucleoside 2-thiouridine (2SUridine). (A) Dose–response assay for inhibition of a ZIKV nanoluc reporter. Cells were inoculated with reporter virus for two hours, washed, and then compound-added. Three days later, cells were lysed, and the luciferase activity was analyzed. (B) DENV-induced cytopathic effects in compound-treated cells. Cells were inoculated with DENV for two hours, washed, and compound-added for five days. A neutral red assay was performed to determine cell viability. (C) Same as in (B), except the cells are not treated with virus. NITD = NITD008 a positive-control DENV inhibitor.
The following viruses were used in this study: (i) ZIKV PAN1 Nluc reporter virus has a nanoluc gene inserted into the viral genome as described. The virus was propagated and virus preps tittered as described. (ii) DENV type 2 New Guinea C strain (VR-1584) was obtained from ATCC (Manassas, VA, USA) and propagated in C6/36 mosquito cells as described.
The ZIKV nanoluc reporter virus assay was performed as described. Briefly, A549 Ace2 TMPRSS2 cells were plated into 96-well plates at 15,000 per well the night before use. […] The luciferase levels were measured using a Neo 2 plate reader (BioTek, Winooski, USA).

Data set [4] deals with DENV type 2 New Guinea C strain. In words: DENV CPE assay in Huh7 cells (neutral red). The settings on record: five days. The format is cell-based, Dengue virus (DENV). Here is the method:
as §3
The following viruses were used in this study: (i) ZIKV PAN1 Nluc reporter virus has a nanoluc gene inserted into the viral genome as described. The virus was propagated and virus preps tittered as described. […]
Huh7 cells were plated into 96-well plates at 10,000 cells per well the day before use. […] The compounds were removed, and the viability of the cells was measured using a neutral red staining assay. […] Neutral red destain buffer (50% ethanol, 49% H2O, and 1% glacial acetic acid) was added at 100 µL per well and the plates were read at 540 nm in a Molecular Device (San Jose, CA, USA) M5e plate reader.

Setting [5] is: 72 h, Table 3, nucleobase dose-response plus vehicle (DMSO).
The mark [6] stands for this setting: 72 h, compound alone, DENV BHK replicon cells, luciferase, three days.
[7] abbreviates: nucleobase dose-response +6MMPR 0.065 μM.
Where [8] appears, read: nucleobase dose-response +Prdg 1 0.09 μM.
The mark [9] stands for this setting: nucleobase dose-response +Prdg 2 1.5 μM.
Where [10] appears, read: nucleobase dose-response +Prdg 3 1.4 μM.
The mark [11] stands for this setting: Table 3, nucleobase dose-response plus vehicle (DMSO).
The mark [12] stands for this setting: compound alone, DENV replicon cells, MTS, three days.

Entries after “also recorded” stand apart in the source; their conditions may differ. Read-outs that look alike come from different tables or passages of the source. Bounds are passed on as bounds.

Turning to `NC(=O)c1nc[nH]n1` [Ribavirin nucleobase], the EC50 worked out at 5.7 µM in the data set on DENV replicon (setting [5]); 5.7 µM with DENV replicon (setting [6]); 3.4 µM in the data set with DENV replicon (setting [7]); 2.3 µM in the data set on DENV replicon (setting [8]); 0.88 µM with DENV replicon (setting [9]); 2.6 µM in the data set with DENV replicon (setting [10]). Also, the “potentiation of anti-replicon activity (in words)” value (shortened to “potentiation”) in the data set on DENV replicon was “can be potentiated”. The CC50 at 3 days in data set [1] (setting [11]) is more than 50 µM; in data set [1] (setting [12]), more than 100 µM; in data set [1] (setting [7]), more than 50 µM; in data set [1] (setting [8]), more than 50 µM; in data set [1] (setting [9]) it was more than 50 µM; in data set [1] (setting [10]), more than 50 µM. In data set [2], the “toxicity of combination (in words)” value is reported as “conferred some toxicity not shown by either compound alone”. Also, the “anti-DENV activity (in words)” value in the data set with DENV is recorded as “similarly strong antiviral activity”; with DENV (listed as ribavirin nucleobase) it was “strong”. The “cytotoxicity (in words)” value with DENV was “considerably less cytotoxic than ribavirin”; in the data set on DENV (listed as ribavirin nucleobase), “non-cytotoxic”.
As for `NC(=O)c1ncc[nH]c1=O` [Prdg T-1105], the EC50 was 15 µM with DENV replicon (setting [5]); 13 µM with DENV replicon (setting [6]); 11 µM in the data set on DENV replicon (setting [7]); 8.3 µM with DENV replicon (setting [8]); 10 µM in the data set with DENV replicon (setting [9]); 9.6 µM in the data set on DENV replicon (setting [10]). The “potentiation” value with DENV replicon is reported as “strongly potentiated”. In addition, the CC50 at 3 days in data set [1] (setting [11]) is more than 167 µM; in data set [1] (setting [12]), more than 500 µM; in data set [1] (setting [7]), more than 167 µM; in data set [1] (setting [8]) it was more than 167 µM; in data set [1] (setting [9]), more than 167 µM; in data set [1] (setting [10]), more than 167 µM.
As to `CC(C)C(=O)OC[C@H]1O[C@@H](n2ccc(NO)nc2=O)[C@H](O)[C@@H]1O` [Molnupiravir], a half-maximal effect in the data set with DENV replicon (setting [6]) (EC50) was put at 6.2 µM. The CC50 at 3 days in data set [1] (setting [12]) came out at 53 µM.
In the same order, the values of `CSc1ncnc2c1ncn2[C@@H]1O[C@H](COC(=O)C(C)C)[C@@H](OC(=O)C(C)C)[C@H]1OC(=O)C(C)C` [Prdg 1] are 0.26 µM and 2.6 µM.
The corresponding values for `CSc1ncnc2c1ncn2[C@@H]1O[C@H](CO)[C@@H](O)[C@H]1O` [Prdg 6MMPR, 6-methylmercaptopurine riboside] are 0.21 µM and 0.21 µM.
In turn, `O=c1cc[nH]c(=S)[nH]1` [Prdg 2-thiouracil, 2-thiouracil] displayed an EC50 with DENV replicon (setting [6]) of more than 50 µM. In data set [1] (setting [12]), this compound returned a CC50 at 3 days of more than 50 µM.
With `NC(=O)c1nc(F)c[nH]c1=O` [Favipiravir], the EC50 was found to be 128 µM in the data set on DENV replicon (setting [5]); 114 µM with DENV replicon (setting [6]); 63 µM with DENV replicon (setting [7]); 51 µM in the data set on DENV replicon (setting [8]); 47 µM with DENV replicon (setting [9]); 46 µM with DENV replicon (setting [10]). Further, the “potentiation” value with DENV replicon (listed as FAV) is given as “clear enhanced effect; also recorded: reduction in the EC50 value”. Further, the CC50 at 3 days in data set [1] (setting [11]), in data set [1] (setting [12]), in data set [1] (setting [7]), in data set [1] (setting [8]), in data set [1] (setting [9]) and in data set [1] (setting [10]) was more than 500 µM in each case.
On to `CSc1ncnc2c1ncn2[C@@H]1O[C@H](COC(=O)N(C)C)[C@@H](O)[C@H]1O` [Prdg 2], for which, in the data set on DENV replicon (setting [6]), the EC50 was 2.5 µM. The compound also came in with a half-maximal cytotoxic concentration (CC50) at 3 days in data set [1] (setting [12]) of 5.4 µM.
The corresponding values for `CSc1ncnc2c1ncn2[C@@H]1O[C@H](COC(=O)N(C)C)[C@@H](OC(=O)C(C)C)[C@H]1OC(=O)C(C)C` [Prdg 3] are 2.3 µM and 2.4 µM.
The corresponding values for `O=c1cnn([C@@H]2O[C@H](CO)[C@@H](O)[C@H]2O)c(=O)[nH]1` [Prdg 6-azauridine, 6-azauridine] are 1.9 µM and 8.8 µM.
The corresponding values for `O=c1[nH]cc(F)c(=O)[nH]1` [5-fluorouracil] are 0.74 µM and 0.93 µM.
In turn, `Cc1c(-c2ccc(-c3ccccc3F)cc2)nc2ccc(F)cc2c1C(=O)O` [Brequinar] came in with an EC50 with DENV replicon (setting [6]) of 3 µM. The same compound registered a CC50 at 3 days in data set [1] (setting [12]) of 4.5 µM.
`O=c1ccn([C@@H]2O[C@H](CO)[C@@H](O)[C@H]2O)c(=S)[nH]1` [2-thiouridine] returned an EC50 with DENV replicon (setting [6]) of more than 50 µM. Moreover, the “anti-replicon activity (in words)” value with DENV replicon (compound alone, DENV BHK replicon cell line) is “we did not observe activity”. Also, the CC50 at 3 days in data set [1] (setting [12]) was more than 50 µM. Besides, in data set [3], the “antiviral activity, ZIKV reporter virus replication (in words)” value was “observe antiviral activity”. For the same compound, the “antiviral activity, DENV-induced cytopathic effects (in words)” value in data set [4] is recorded as “observe antiviral activity”.

As a reminder, the EC50 is the concentration needed to bring the measured effect to its halfway point. As usually defined, the CC50 is the concentration giving 50% cytotoxicity.
